Here are results for 47 sequences from patent US9340577B2, “HLA binding motifs and peptides and their uses” (priority 1992, dated 2016).

No end group written: not given here.

Holding throughout (assay): biochemical
Holding throughout (type): binding

Assay [1] addresses HLA-A1 (A*0101) (Homo sapiens, UniProt P04439, A114D/A174V/A182V/D101N/D185E/E176A/E190D/L180R/Q94H/R68K/S129P/T187R/V100A/V91M/W191G).
In assay [2] the target is A*3002 (Homo sapiens, UniProt P04439, D101N/D140H/D185E/E176R/F33S/G80R/H175R/K168Q/Q94H/R138E/R41S/V100E).
A*3002, sequence (P04439 whole entry, looked up, the tested form may be a part, stated change not applied): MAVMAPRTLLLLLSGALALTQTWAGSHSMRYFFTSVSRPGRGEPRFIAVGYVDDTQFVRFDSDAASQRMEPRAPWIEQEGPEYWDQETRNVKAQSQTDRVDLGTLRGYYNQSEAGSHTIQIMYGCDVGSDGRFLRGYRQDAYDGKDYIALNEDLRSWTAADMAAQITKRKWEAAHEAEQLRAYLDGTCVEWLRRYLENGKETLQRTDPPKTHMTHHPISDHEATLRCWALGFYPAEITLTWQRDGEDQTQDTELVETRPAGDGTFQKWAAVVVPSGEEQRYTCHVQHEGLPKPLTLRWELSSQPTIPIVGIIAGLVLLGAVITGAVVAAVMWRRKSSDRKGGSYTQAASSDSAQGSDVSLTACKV
For assay [3], the target named is A*2601 (Homo sapiens, UniProt P04439, A114D/A173T/A270S/D101N/D185E/E277Q/E87N/F33Y/G231S/I121R/I218V/K168Q/L180W/L300P/L318F/P208A/P217A/Q86R/Q94H/R138Q/S129P/T187R/T323A/T345S/V100A/V358M).
Assay [4] deals with A*2902 (Homo sapiens, UniProt P04439, A270S/D101N/D185E/E176V/E277Q/E87Q/F33T/G231S/H175R/I121M/I218V/I322F/K168Q/L300P/L318F/M331R/P208A/P217A/Q86L/T323A/T345S/V100A/V358M).

By IC50 is commonly meant the point on the concentration scale where inhibition reaches its midpoint. Turning to GYADQLIHLY [Peptide 9018.0025], the IC50 in assay [1] was 109 nM; in assay [2], 1.2 nM; in assay [3] it was 4400 nM; in assay [4], 42 nM.
Take GYFPDWQNY [Peptide 1605.15]: the IC50 is > 20000 nM in assay [1], 48 nM in assay [2], > 20000 nM in assay [3] and 659 nM in assay [4].
Turning to HMDREKHPEY [Peptide 9018.0007], the half-inhibitory concentration (IC50) in assay [1] was 24 nM; in assay [2], 648 nM; in assay [3], 2760 nM; in assay [4] it was > 20000 nM.
Regarding HMDRELHPEY [Peptide 9018.0005], the IC50 in assay [1] amounted to 5.1 nM; in assay [2], 3.6 nM; in assay [3] it was 6.8 nM; in assay [4], 13 nM.
For HYARELHPEY [Peptide 9018.0035], the 50% inhibitory concentration (IC50) is > 20000 nM in assay [1], 104 nM in assay [2], > 20000 nM in assay [3] and 928 nM in assay [4].
As for ISNYTDTIY [Peptide 9015.0007], the IC50 in assay [1] worked out at 104 nM; in assay [2] it was 36 nM; in assay [3], 6100 nM; in assay [4], 141 nM.
Taken in the same sequence, the figures for ITDDSDIAY [Peptide 1580.14] were 4.2 nM, 3150 nM, 7470 nM and 2100 nM.
In the case of ITDDSEIAY [Peptide 1593.04], the IC50 in assay [1] came out at 20 nM; in assay [2] it was 3100 nM; in assay [3] it was 7370 nM; in assay [4] it was 1440 nM.
On to KSLVKHHMY [Peptide 9015.0034], for which the half-inhibitory concentration (IC50) in assay [1] is 10500 nM; in assay [2], 7.7 nM; in assay [3] it was > 20000 nM; in assay [4], 2790 nM.
Taken in the same sequence, the figures for KYCWNLLQY [Peptide 1595.08] were > 20000 nM, 47 nM, > 20000 nM and 235 nM.
As for LADQLIHLY [Peptide 9015.0038], the concentration for half-maximal inhibition (IC50) in assay [1] is 4 nM; in assay [2], 96 nM; in assay [3] it was 6090 nM; in assay [4], 1330 nM.
Consider LMWKFDSSL [Peptide 1605.16], for which the IC50 in assay [1] was > 20000 nM; in assay [2], 348 nM; in assay [3], > 20000 nM; in assay [4] it was 2050 nM.
LSDLQDSGY [Peptide 1580.15]: the IC50 was 1.7 nM in assay [1], 4030 nM in assay [2], > 20000 nM in assay [3] and > 20000 nM in assay [4].
Turning to LSDMVQWAY [Peptide 1593.03], the IC50 in assay [1] came out at 21 nM; in assay [2], 161 nM; in assay [3], 8060 nM; in assay [4] it was 504 nM.
As for LSEMIQWAY [Peptide 1580.17], the 50% inhibitory concentration (IC50) is 1.5 nM in assay [1], 77 nM in assay [2], > 20000 nM in assay [3] and 187 nM in assay [4].
Consider LTDDSDIAYY [Peptide 1580.12], for which the IC50 in assay [1] was determined as 6.4 nM; in assay [2], 293 nM; in assay [3], 738 nM; in assay [4] it was 3980 nM.
Turning to LTDQLIHLY [Peptide 9018.0026], the IC50 in assay [1] was found to be 0.53 nM; in assay [2] it was 2.6 nM; in assay [3], 432 nM; in assay [4], 178 nM.
For LYDQLIHLY [Peptide 9018.0028], the IC50 in assay [1] came out at 177 nM; in assay [2], 21 nM; in assay [3], 69 nM; in assay [4] it was 249 nM.
The matching figures for LYDQLIHMYY [Peptide 9018.0031]: 191 nM, 38 nM, 4370 nM and 131 nM.
Taken in the same sequence, the figures for MRDNWRSELY [Peptide 9015.0155] were > 20000 nM, 73 nM, > 20000 nM and 6800 nM.
The matching figures for MSMSQWIKY [Peptide 1580.05]: 229 nM, 1.8 nM, 158 nM and 7.7 nM.
Turning to NSDVKHHMY [Peptide 9018.0010], the half-inhibitory concentration (IC50) is 3.2 nM in assay [1], 70 nM in assay [2], 8990 nM in assay [3] and 193 nM in assay [4].
As to NSLVKHHMY [Peptide 9015.0033], the half-inhibitory concentration (IC50) in assay [1] is 2030 nM; in assay [2], 451 nM; in assay [3], > 20000 nM; in assay [4] it was 326 nM.
NTLVKHHMY [Peptide 9018.0009]: the 50% inhibitory concentration (IC50) in assay [1] came out at 363 nM; in assay [2] it was 69 nM; in assay [3] it was 7370 nM; in assay [4], 45 nM.
For NTPPLVKLWY [Peptide 9015.0170], the IC50 turned out to be 18400 nM in assay [1], 9350 nM in assay [2], 199 nM in assay [3] and 2650 nM in assay [4].
The matching figures for QTDYYGLYY [Peptide 1593.06]: 1.3 nM, 674 nM, 122 nM and 38 nM.
The matching figures for QTRVLAIERY [Peptide 9015.0156]: 6420 nM, 67 nM, 3310 nM and 4180 nM.
For the sequence RFALNPGLL [Peptide 1605.01], the IC50 is > 20000 nM in assay [1], 98 nM in assay [2], > 20000 nM in assay [3] and > 20000 nM in assay [4].
With RTKNPEIVIY [Peptide 9015.0164], the IC50 in assay [1] was > 20000 nM; in assay [2] it was 12 nM; in assay [3], > 20000 nM; in assay [4], > 20000 nM.
Regarding RYSTQVDPGY [Peptide 9018.0039], the half-maximal inhibitory concentration (IC50) in assay [1] is 12200 nM; in assay [2], 40 nM; in assay [3] it was > 20000 nM; in assay [4], > 20000 nM.
SFEPIPIHY [Peptide 9015.0001]: the half-inhibitory concentration (IC50) in assay [1] is > 20000 nM; in assay [2] it was 191 nM; in assay [3] it was 953 nM; in assay [4], 9.4 nM.
As to SIDWRLRRY [Peptide 9018.0020], the IC50 in assay [1] was 986 nM; in assay [2], 27 nM; in assay [3], 624 nM; in assay [4], 3310 nM.
SIDWRQRRY [Peptide 9018.0018]: the IC50 in assay [1] was 43 nM; in assay [2], 3.5 nM; in assay [3], 236 nM; in assay [4] it was 561 nM.
Turning to SIEWRLRRY [Peptide 9015.0035], the IC50 worked out at 5230 nM in assay [1], 265 nM in assay [2], 164 nM in assay [3] and 13100 nM in assay [4].
The matching figures for SSDAALYWY [Peptide 1593.08]: 34 nM, 799 nM, > 20000 nM and 1970 nM.
With STDAALYWY [Peptide 1593.02], the IC50 worked out at 2.6 nM in assay [1], 68 nM in assay [2], 24 nM in assay [3] and 26 nM in assay [4].
Taken in the same sequence, the figures for STEWRLRRY [Peptide 9018.0019] were 52 nM, 6.6 nM, 320 nM and 271 nM.
With TWETWWTDY [Peptide 9015.0019], the IC50 is > 20000 nM in assay [1], 6310 nM in assay [2], 3300 nM in assay [3] and 137 nM in assay [4].
Consider VSDEWRLRRY [Peptide 9018.0016], for which the IC50 in assay [1] came out at 62 nM; in assay [2] it was 47 nM; in assay [3], 4320 nM; in assay [4] it was 2580 nM.
As to VSDRANGWFY [Peptide 9018.0012], the 50% inhibitory concentration (IC50) stood at 4.3 nM in assay [1], 18 nM in assay [2], 191 nM in assay [3] and 932 nM in assay [4].
The matching figures for VSIEWRLRRY [Peptide 9015.0181]: 4630 nM, 55 nM, 363 nM and 2490 nM.
For the sequence VSIEWRQRRY [Peptide 9015.0182], the IC50 worked out at 7930 nM in assay [1], 65 nM in assay [2], 1990 nM in assay [3] and 13900 nM in assay [4].
For VSRDAKGWFY [Peptide 9018.0014], the IC50 was determined as 14 nM in assay [1], 3.4 nM in assay [2], 64 nM in assay [3] and 17 nM in assay [4].
Regarding VSRRAKGWFY [Peptide 9015.0178], the IC50 in assay [1] was 273 nM; in assay [2], 40 nM; in assay [3] it was > 20000 nM; in assay [4], 11900 nM.
Regarding VTIEWRLRRY [Peptide 9018.0015], the IC50 in assay [1] was 19 nM; in assay [2], 3.5 nM; in assay [3], 33 nM; in assay [4], 123 nM.
For the sequence VTRRAKGWFY [Peptide 9018.0013], the half-maximal inhibitory concentration (IC50) in assay [1] stood at 1.5 nM; in assay [2], 3.3 nM; in assay [3], 15 nM; in assay [4], 21 nM.
Take VWDIVYIEY [Peptide 9018.0040]: the half-inhibitory concentration (IC50) in assay [1] was determined as 91 nM; in assay [2] it was 472 nM; in assay [3], 336 nM; in assay [4] it was 540 nM.
